Measured values from article PMC11558822, “Myc 9aaTAD activation domain binds to mediator of transcription with superior high affinity” (Molecular Medicine, 2024).
Residues, ends and D or L forms follow the SMILES beside them. No end group written: not given here. *: point of attachment. Biotin = O=C1N[C@H]2[C@H](CS[C@H]2CCCCC(=O)*)N1

Assays:
KIX domain of CBP = molecular target: T1, KIX domain of CBP (Homo sapiens, UniProt Q92793); assay: Bio-layer interferometry (BLI) of immobilized 9aaTAD peptides with KIX domain; format: binding; conditions: for Kd: BLI Octet RED96e, biotinylated peptide on streptavidin SA biosensors, KIX 0.31-5.0 μM, 20 mM sodium phosphate pH 6.0, 50 mM NaCl, 30 °C, steady-state 1:1 fit, average of pentaplicate, read-out: KD(apparent)
T1 construct: GST (N, cleaved yes); His6 (N, cleaved yes); made in house
Description: Bio-layer interferometry on Octet RED96e (ForteBio) was used for the analysis of interaction between KIX domain and proposed activation domains. All experiments were performed at 30 °C at 1000 rpm shaking. Streptavidin-bearing SA biosensors (ForteBio) were immersed for 300 s into the assay buffer (20 mM sodium phosphate pH 6.0, 50 mM NaCl) containing 60 μM biotinylated MLL, MYC or NMY peptide, respectively. After subsequent wash in the assay buffer, the final steady response of ligand reached 0.6–0.8 nm. Parallel blank sensor was treated the same way with pure assay buffer being used instead of biotinylated peptide solution in the immobilization step. For the binding assay, all sensors were used in parallel applying the following procedure: 120 s baseline in the assay buffer, 180 s association in the assay buffer containing increasing concentration of KIX domain for each cycle (0.31, 0.63, 1.25, 2.5 and 5.0 μM), 240 s dissociation in the assay buffer and 3 repetitions of 30 s regeneration in 50 mM NaOH followed by 30 s assay buffer wash. Each binding experiment was performed in pentaplicate and the data were processed using Data Analysis 11.1 evaluation SW (ForteBio). Obtained binding curves were blank-subtracted and fitted by a 1:1 binding model using steady state analysis. Final KD (apparent) values were calculated as an average of all measurements.

[1] = system: lacZ reporter driven by the lexA operator; assay: One hybrid transactivation (β-galactosidase reporter) assay with LexA hybrids in yeast strain L40; format: cell-based, Saccharomyces cerevisiae; conditions: for ß-Gal: raw β-galactosidase activity; for Reporter activation (average value in %): β-galactosidase activity of LexA hybrid, % of positive control p53 construct 6p53 set to 100%, mean ± SD, n = 3; for normalized value in %: β-galactosidase, % of 6p53 mean; for activation function (times): one hybrid assay, presence versus absence of 9aaTAD (region 100–108) in the construct
[2] = replicate 1 (first sample of the construct)
[3] = replicate 2 (second sample of the construct)
[4] = replicate 3 (third sample of the construct)

T1 sequence (Q92793 587-666 limits assumed): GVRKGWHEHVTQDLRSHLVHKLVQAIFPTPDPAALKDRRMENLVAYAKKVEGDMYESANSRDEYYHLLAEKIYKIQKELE

Row | Binding to KIX (KIX domain of CBP; BLI, KIX in the 3–16 μM range, negative control) | Molecule | Kd (KIX domain of CBP) [µM] | ß-Gal [1, 2] | ß-Gal [1, 3] | ß-Gal [1, 4] | Reporter activation (average value in %) [1] [%] | normalized value in % [1, 2] [%] | normalized value in % [1, 3] [%] | normalized value in % [1, 4] [%] | activation function (times) [1] [times]
1 |  | CC[C@H](C)[C@H](NC(=O)[C@H](CC(=O)O)NC(=O)[C@H](CO)NC(=O)[C@@H]1CCCN1C(=O)[C@H](CC(C)C)NC(=O)[C@@H](NC(=O)[C@H](CC(N)=O)NC(=O)[C@H](CO)NC(=O)CNC(=O)CCCC[C@@H]1SC[C@@H]2NC(=O)N[C@@H]21)[C@@H](C)CC)C(=O)N[C@@H](CCSC)C(=O)N[C@@H](CC(=O)O)C(=O)N[C@@H](Cc1ccccc1)C(=O)N[C@H](C(=O)N[C@@H](CC(C)C)C(=O)N[C@@H](CCCCN)C(=O)N[C@@H](CC(N)=O)C(=O)N[C@H](C(=O)O)[C@@H](C)O)C(C)C [MLL, reference compound] (Biotin-GSNILPSDIMDFVLKNT-OH) | 1.17 ± 0.21 |  |  |  |  |  |  |  | 
2 |  | CSCC[C@H](NC(=O)[C@H](CCC(=O)O)NC(=O)[C@@H](NC(=O)[C@@H](NC(=O)[C@H](Cc1c[nH]c2ccccc12)NC(=O)[C@H](CO)NC(=O)[C@@H]1CCCN1C(=O)[C@@H]1CCCN1C(=O)[C@H](CCC(=O)O)NC(=O)[C@H](CO)NC(=O)[C@H](CO)NC(=O)[C@H](CO)NC(=O)CNC(=O)CCCC[C@@H]1SC[C@@H]2NC(=O)N[C@@H]21)C(C)C)[C@@H](C)O)C(=O)N[C@@H](CC(C)C)C(=O)N[C@@H](CC(C)C)C(=O)N[C@@H](CCC(=O)O)C(=O)N[C@@H](CC(N)=O)C(=O)O [N-Myc] (Biotin-GSSSEPPSWVTEMLLEN-OH) | 0.88 ± 0.11 |  |  |  |  |  |  |  | 
3 |  | CC(C)C[C@H](NC(=O)[C@H](CC(=O)O)NC(=O)[C@H](CC(=O)O)NC(=O)[C@H](CC(C)C)NC(=O)[C@H](CC(=O)O)NC(=O)[C@H](CC(C)C)NC(=O)[C@@H](NC(=O)[C@H](CC(=O)O)NC(=O)[C@H](Cc1c[nH]c2ccccc12)NC(=O)[C@H](CO)NC(=O)[C@@H](NC(=O)[C@H](CC(=O)O)NC(=O)CNC(=O)[C@H](CO)NC(=O)[C@H](CO)NC(=O)CNC(=O)CCCC[C@@H]1SC[C@@H]2NC(=O)N[C@@H]21)C(C)C)[C@@H](C)O)C(=O)N[C@@H](CC(=O)O)C(=O)O [Sp1-Ac] (Biotin-GSSGDVSWDTLDLDDLD-OH) | 9.77 ± 1.57 |  |  |  |  |  |  |  | 
4 |  | CSCC[C@H](NC(=O)[C@H](CCC(=O)O)NC(=O)[C@H](CC(C)C)NC(=O)[C@H](CCC(N)=O)NC(=O)[C@@H](NC(=O)[C@H](CO)NC(=O)[C@H](CO)NC(=O)[C@H](CO)NC(=O)CNC(=O)CCCC[C@@H]1SC[C@@H]2NC(=O)N[C@@H]21)[C@@H](C)O)C(=O)N[C@H](C(=O)N[C@H](C(=O)N[C@@H](CCC(=O)O)C(=O)N[C@@H](CC(C)C)C(=O)N[C@@H](CC(C)C)C(=O)NCC(=O)O)[C@@H](C)O)C(C)C [c-Myc] (Biotin-GSSSTQLEMVTELLG-OH) | 2.16 ± 1.17 |  |  |  |  |  |  |  | 
5 | did not bind | Biotin—GSS- GQ VSWQ T LQLQ NLQ [native Sp1, biotinylated native Sp1 9aaTAD peptide, negative control for BLI, reference compound] |  |  |  |  |  |  |  |  | 
6 |  | c-Myc region 69-103: LexA hybrid construct of c-Myc region 69–103 without 9aaTAD (ELLPTPPLSPSRRSGLCSPSYVAVTPFSLRGDNDG; LexA fusion; UniProt P01106 69-103, looked up, fragment) |  | 74 | 83 | 71 | 29 | 27 | 31 | 26 | 
7 |  | c-Myc region 69-108: LexA hybrid construct of c-Myc region 69–108 with 9aaTAD (ELLPTPPLSPSRRSGLCSPSYVAVTPFSLRGDNDGGGGSF; LexA fusion; UniProt P01106 69-108, looked up, fragment) |  | 255 | 241 | 242 | 90 | 93 | 88 | 89 | 3
8 |  | c-Myc region 98-108: LexA hybrid construct of alone-standing c-Myc 9aaTAD activation domain (RGDNDGGGGSF; also: LexA fusion; UniProt P01106 98-108, looked up, fragment) |  | 191 | 185 | 169 | 67 | 70 | 68 | 62 | 67
